# Target: Full length human TBK1 (Homo sapiens (Human), UniProt Q9UHD2)
# Assay: Inhibition of TBK1 Enzyme (Example A)
# Assay type: biochemical
# Conditions: -log(IC50), IC50 molar; 3 nM TBK1, 25 μM ATP, 60 min RT
# Method: Full length human TBK1 with an N-terminal His-tag was cloned into the pFastBacl vector and was transfected into Sf9 cells. 72 hours later the virus was harvested and amplified through two additional rounds of infections. Then 400 mL of the resulting virus stock was used to infect 10 L of Sf9 cells at a density of 2×10^6 cells/mL. Cell pellets were harvested 48 hours post infection and were lysed by freeze-thaw, homogenization and sonication in binding buffer (25 mM Tris pH7.6, 1 M NaCl, 10 mM imidazole, 0.5 mM TCEP) plus 0.1% Triton X-100 and complete protease inhibitor cocktail. The lysate was spun and the supernatant was purified with a HisTrap FF crude and a Superdex 200 pg column.
# TBK1 inhibition is determined using a 384 well plate format in buffer containing 20 mM Hepes, pH 7.4, 10 mM MgCl2, 1 mM EDTA, 0.01% Brij-L23, 1 mM DTT. Each test compound is prepared in DMSO using 2.5-fold serial dilutions for 11 data points, which are added to the buffer so that each dilution contains 1% DMSO. To each well is added 2 μL of 1 μM 5FAM-DRHDSGLDSMKDE-NH2 (in buffer), 2 μL of diluted test compound (1% DMSO in buffer), and 5 μL of 3 nM TBK1 and 25 μM ATP (in buffer). The reaction mixture is incubated at RT for 60 min, and quenched by adding 20 mM Hepes, pH 7.4, 10 mM MgCl2, 1 mM EDTA, 0.01% Brij-L23, 1 mM DTT+25 mM EDTA. To quantify the fluorescent-labeled substrate and product following reaction, the test plate is loaded on a Caliper LC-3000, which measures percent of conversion by microfluidic-based separation. Corresponding IC50 values are calculated by non-linear curve fitting of the compound concentrations and percent of inhibition to the standard IC50 equation and reported as pIC50, i.e., −log(IC50), where IC50 is the molar concentration.
# Full length human TBK1, sequence (Q9UHD2 whole entry): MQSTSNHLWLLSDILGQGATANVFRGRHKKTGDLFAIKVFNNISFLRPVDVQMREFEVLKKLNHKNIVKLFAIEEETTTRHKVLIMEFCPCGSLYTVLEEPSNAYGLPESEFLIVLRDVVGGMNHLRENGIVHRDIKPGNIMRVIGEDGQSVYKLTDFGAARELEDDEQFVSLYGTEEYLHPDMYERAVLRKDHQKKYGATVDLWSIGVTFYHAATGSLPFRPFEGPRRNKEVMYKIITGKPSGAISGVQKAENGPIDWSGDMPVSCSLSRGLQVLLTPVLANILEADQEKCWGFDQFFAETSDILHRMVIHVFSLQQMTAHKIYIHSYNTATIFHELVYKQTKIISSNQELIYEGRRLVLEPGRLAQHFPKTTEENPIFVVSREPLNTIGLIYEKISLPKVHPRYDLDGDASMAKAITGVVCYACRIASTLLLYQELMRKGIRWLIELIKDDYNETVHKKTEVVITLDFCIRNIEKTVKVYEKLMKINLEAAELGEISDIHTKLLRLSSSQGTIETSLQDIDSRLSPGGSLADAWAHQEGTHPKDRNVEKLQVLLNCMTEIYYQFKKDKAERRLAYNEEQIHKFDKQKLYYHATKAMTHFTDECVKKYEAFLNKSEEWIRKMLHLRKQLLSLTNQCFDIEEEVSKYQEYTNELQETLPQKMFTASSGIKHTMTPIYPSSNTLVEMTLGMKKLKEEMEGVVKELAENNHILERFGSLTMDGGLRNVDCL
row,SMILES,TBK1 Inhibition (pIC50)
1,"CC[C@@H](Nc1cc(-c2cnc(NC(=O)C3CC3)cn2)cnc1C#N)C(=O)N(C)C [Example 31, (R)-N-(5-(6-cyano-5-((1-(dimethylamino)-1-oxobutan-2-yl)amino)pyridin-3-yl)pyrazin-2-yl)cyclopropanecarboxamide]",6.3
2,"C[C@@H](O)[C@H](Nc1cc(-c2cnc(NC(=O)C3CC3)cn2)cnc1C#N)C(=O)N(C)C [Example 32, N-(5-(6-cyano-5-(((2S,3R)-1-(dimethylamino)-3-hydroxy-1-oxobutan-2-yl)amino)pyridin-3-yl)pyrazin-2-yl)cyclopropanecarboxamide]",6.8
3,"CN(C)C(=O)[C@@H](CC(F)F)Nc1cc(-c2cnc(NC(=O)C3CC3)cn2)ccc1C#N [Example 33, (R)-N-(5-(4-cyano-3-((1-(dimethylamino)-4,4-difluoro-1-oxobutan-2-yl)amino)phenyl)pyrazin-2-yl)cyclopropanecarboxamide]",5.9
4,"CN(C)C(=O)[C@H](CC(F)F)Nc1cc(-c2cnc(NC(=O)C3CC3)cn2)ccc1C#N [Example 34, (S)-N-(5-(4-cyano-3-((1-(dimethylamino)-4,4-difluoro-1-oxobutan-2-yl)amino)phenyl)pyrazin-2-yl)cyclopropanecarboxamide]",8.2
5,"CCC(Nc1cc(-c2cnc(NC(=O)C3CC3)cn2)cnc1C#N)C(=O)N(C)CCO (stereo not drawn) [Example 35, N-(5-(6-cyano-5-((1-((2-hydroxyethyl)(methyl)amino)-1-oxobutan-2-yl)amino)pyridin-3-yl)pyrazin-2-yl)cyclopropanecarboxamide]",6.9
6,"CCC(Nc1cc(-c2cnc(NC(=O)C3CC3)cn2)cnc1C#N)C(=O)N(C)C1CC1 (stereo not drawn) [Example 36, N-(5-(6-cyano-5-((1-(cyclopropyl(methyl)amino)-1-oxobutan-2-yl)amino)pyridin-3-yl)pyrazin-2-yl)cyclopropanecarboxamide]",7.3
7,"C[C@@H](O)[C@@H](Nc1cc(-c2cnc(NC(=O)C3CC3)cn2)cnc1C#N)C(=O)N(C)C [Example 37, N-(5-(6-cyano-5-(((2R,3R)-1-(dimethylamino)-3-hydroxy-1-oxobutan-2-yl)amino)pyridin-3-yl)pyrazin-2-yl)cyclopropanecarboxamide]",6.9
8,"C[C@H](O)[C@@H](Nc1cc(-c2cnc(NC(=O)C3CC3)cn2)cnc1C#N)C(=O)N(C)C [Example 38, N-(5-(6-cyano-5-(((2R,3S)-1-(dimethylamino)-3-hydroxy-1-oxobutan-2-yl)amino)pyridin-3-yl)pyrazin-2-yl)cyclopropanecarboxamide]",5.8
9,"C[C@H](O)[C@H](Nc1cc(-c2cnc(NC(=O)C3CC3)cn2)cnc1C#N)C(=O)N(C)C [Example 39, N-(5-(6-cyano-5-(((2S,3S)-1-(dimethylamino)-3-hydroxy-1-oxobutan-2-yl)amino)pyridin-3-yl)pyrazin-2-yl)cyclopropanecarboxamide]",7.0
10,"CN(CC(F)(F)F)C(=O)CNc1cc(-c2cnc(NC(=O)C3CC3)cn2)cnc1C#N [Example 40, N-(5-(6-cyano-5-((2-(methyl(2,2,2-trifluoroethyl)amino)-2-oxoethyl)amino)pyridin-3-yl)pyrazin-2-yl)cyclopropanecarboxamide]",7.5
11,"CC(Nc1cc(-c2cnc(NC(=O)C3CC3)cn2)cnc1C#N)C(=O)N(C)CC(F)(F)F (stereo not drawn) [Example 41, N-(5-(6-cyano-5-((1-(methyl(2,2,2-trifluoroethyl)amino)-1-oxopropan-2-yl)amino)pyridin-3-yl)pyrazin-2-yl)cyclopropanecarboxamide]",7.8
12,"COCC(Nc1cc(-c2cnc(NC(=O)C3CC3)cn2)cnc1C#N)C(=O)N(C)C (stereo not drawn) [Example 42, N-(5-(6-cyano-5-((1-(dimethylamino)-3-methoxy-1-oxopropan-2-yl)amino)pyridin-3-yl)pyrazin-2-yl)cyclopropanecarboxamide]",6.8
13,"CC(Nc1cc(-c2cnc(NC(=O)C3CC3)cn2)cnc1C#N)C(=O)N(C)CC#N (stereo not drawn) [Example 43, N-(5-(6-cyano-5-((1-((cyanomethyl)(methyl)amino)-1-oxopropan-2-yl)amino)pyridin-3-yl)pyrazin-2-yl)cyclopropanecarboxamide]",7.7
14,"CN(C)C(=O)C(CC#N)Nc1cc(-c2cnc(NC(=O)C3CC3)cn2)cnc1C#N (stereo not drawn) [Example 44, N-(5-(6-cyano-5-((3-cyano-1-(dimethylamino)-1-oxopropan-2-yl)amino)pyridin-3-yl)pyrazin-2-yl)cyclopropanecarboxamide]",6.2
15,"N#Cc1ncc(-c2cnc(NC(=O)C3CC3)cn2)cc1NCC(=O)N1CCC[C@@H]1C#N [Example 45, (R)-N-(5-(6-cyano-5-((2-(2-cyanopyrrolidin-1-yl)-2-oxoethyl)amino)pyridin-3-yl)pyrazin-2-yl)cyclopropanecarboxamide]",7.5
16,"CC(Nc1cc(-c2cnc(NC(=O)C3CC3)cn2)cnc1C#N)C(=O)N(C)CC(F)F (stereo not drawn) [Example 46, N-(5-(6-cyano-5-((1-((2,2-difluoroethyl)(methyl)amino)-1-oxopropan-2-yl)amino)pyridin-3-yl)pyrazin-2-yl)cyclopropanecarboxamide]",8.0
17,"CC(Nc1cc(-c2cnc(NC(=O)C3CC3)cn2)cnc1C#N)C(=O)N(C)CCF (stereo not drawn) [Example 47, N-(5-(6-cyano-5-((1-((2-fluoroethyl)(methyl)amino)-1-oxopropan-2-yl)amino)pyridin-3-yl)pyrazin-2-yl)cyclopropanecarboxamide]",7.7
18,"N#Cc1ncc(-c2cnc(NC(=O)C3CC3)cn2)cc1NCC(=O)N1CCC[C@@H]1C(F)(F)F [Example 48, (R)-N-(5-(6-cyano-5-((2-oxo-2-(2-(trifluoromethyl)pyrrolidin-1-yl)ethyl)amino)pyridin-3-yl)pyrazin-2-yl)cyclopropanecarboxamide]",8.2
19,"CN(CC#N)C(=O)CNc1cc(-c2cnc(NC(=O)C3CC3)cn2)cnc1C#N [Example 49, N-(5-(6-cyano-5-((2-((cyanomethyl)(methyl)amino)-2-oxoethyl)amino)pyridin-3-yl)pyrazin-2-yl)cyclopropanecarboxamide]",7.2
20,"C[C@H](Nc1cc(-c2cnc(NC(=O)C3CC3)cn2)cnc1C#N)C(=O)N(C)CC#N [Example 50, (S)-N-(5-(6-cyano-5-((1-((cyanomethyl)(methyl)amino)-1-oxopropan-2-yl)amino)pyridin-3-yl)pyrazin-2-yl)cyclopropanecarboxamide]",7.9
21,"CC[C@H](Nc1cc(-c2cnc(NC(=O)C3CC3)cn2)cnc1C#N)C(=O)N(C)CC#N [Example 51, (S)-N-(5-(6-cyano-5-((1-((cyanomethyl)(methyl)amino)-1-oxobutan-2-yl)amino)pyridin-3-yl)pyrazin-2-yl)cyclopropanecarboxamide]",7.4
22,"COCC[C@H](Nc1cc(-c2cnc(NC(=O)C3CC3)cn2)cnc1C#N)C(=O)N(C)CCO [Example 52, (S)-N-(5-(6-cyano-5-((1-((2-hydroxyethyl)(methyl)amino)-4-methoxy-1-oxobutan-2-yl)amino)pyridin-3-yl)pyrazin-2-yl)cyclopropanecarboxamide]",6.5
23,"C[C@H](Nc1cc(-c2cnc(NC(=O)C3CC3)cn2)cnc1C#N)C(=O)N(C)CC(F)F [Example 53, (S)-N-(5-(6-cyano-5-((1-((2,2-difluoroethyl)(methyl)amino)-1-oxopropan-2-yl)amino)pyridin-3-yl)pyrazin-2-yl)cyclopropanecarboxamide]",8.6
24,"C[C@H](Nc1cc(-c2cnc(NC(=O)C3CC3)cn2)cnc1C#N)C(=O)N(C)CCF [Example 54, (S)-N-(5-(6-cyano-5-((1-((2-fluoroethyl)(methyl)amino)-1-oxopropan-2-yl)amino)pyridin-3-yl)pyrazin-2-yl)cyclopropanecarboxamide]",8.0
25,"C[C@H](Nc1cc(-c2cnc(NC(=O)C3CC3)cn2)cnc1C#N)C(=O)N1CCC[C@@H]1C#N [Example 55, N-(5-(6-cyano-5-(((S)-1-((R)-2-cyanopyrrolidin-1-yl)-1-oxopropan-2-yl)amino)pyridin-3-yl)pyrazin-2-yl)cyclopropanecarboxamide]",7.6
26,"CC[C@H](Nc1cc(-c2cnc(NC(=O)C3CC3)cn2)cnc1C#N)C(=O)N(C)CCF [Example 56, (S)-N-(5-(6-cyano-5-((1-((2-fluoroethyl)(methyl)amino)-1-oxobutan-2-yl)amino)pyridin-3-yl)pyrazin-2-yl)cyclopropanecarboxamide]",7.7
27,"CN(C)C(=O)[C@H](CO)Nc1cc(-c2cnc(NC(=O)C3CC3)cn2)cnc1C#N [Example 57, (S)-N-(5-(6-cyano-5-((1-(dimethylamino)-3-hydroxy-1-oxopropan-2-yl)amino)pyridin-3-yl)pyrazin-2-yl)cyclopropanecarboxamide]",7.2

# From patent US9994547B2, “Heteroarylamide inhibitors of TBK1” (Takeda Pharmaceutical Company Limited, priority 2014, dated 2018)
